The record followed here is patent publication EP0953345A1, “Use of at least a hydroxystilbene as an agent for decreasing micro-organism adhesion” (priority 1998, dated 1999).

This test has as its system Staphylococcus epidermis. Kind of test: ex vivo bacteria/skin adhesion model on intact human skin explants (3H-thymidine-labelled bacteria, liquid scintillation counting). The class given is cell-based. An excerpt: L'activité du resvératrol sur l'adhésion de micro-organismes sur la peau ou sur les muqueuses humaines est testée sur un modèle d'adhésion bactéries/peau, tel que décrit ci-après.
Ce modèle d'adhésion bactéries/peau ex vivo est basé sur l'utilisation d'explants de peau humaine intacte montée en sandwich entre une plaque 96 puits sans fond et un support en Plexiglas. Les puits individualisés étanches permettent de tester dans un format standard l'effet du resvératrol sur l'adhésion de Staphylococcus epidermis (bactéries résidentes) à la surface de la peau. Les bactéries sont radio marquées en phase de croissance par incorporation de 3H-thymidine. Cette flore bactérienne est ensuite déposée dans chaque puits. Après une heure d'incubation à 20°C, les puits sont lavés trois fois avec du tampon phosphate salin (PBS) ce qui permet d'éliminer les bactéries libres. Le resvératrol est ensuite ajouté à 0,1 µM et 10 µM et incubé 1 heure à 20°C. A l'issue de cette incubation le contenu de chaque puits est récupéré et compté en scintillation liquide (bactéries désorbées). Les puits sont ensuite lavés avec une solution chaotropique qui permet d'éluer les bactéries adhérentes. Les solutions de lavages sont également compté en scintillation liquide (bactéries adhérentes). Un témoin positif (Fucogel® Acide (poly-[(α-1,3)-Fuc-(α-1,3)-Gal-(α-1,3)-galacturonique]) est inclus à l'étude comme référence.

[1] abbreviates: Staphylococcus, 1 h, read-out: Bactéries adhérentes.
Setting [2] is: Staphylococcus, read-out: inhibition de l'adhésion des bactéries.

Structures are written as SMILES.

The term inhibition denotes the share of the control response that was lost under treatment. `Oc1ccc(C=Cc2cc(O)cc(O)c2)cc1` [resvératrol, 3,4',5-trihydroxystilbène]: for the setting “0,1 µM and 10 µM”, the “dose dependence of the activity on adhesion of bacteria to human skin (in words)” value is on record as “dose dépendante”. Besides, under setting [1], the activity at 0.1 µM worked out at 71% and the activity at 10 µM turned out to be 64%. In addition, under setting [2], the inhibition at 1 µM came out at 29% and the inhibition at 10 µM worked out at 36%.
